The target of test [1] is dopaminergic receptors D3 (Homo sapiens, UniProt P35462). Briefly: Radioligand binding assay, dopaminergic D3 receptors. To be noted: test compound 1×10^−6 M. In short, it runs like this: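 Competition radioligand binding at human D2, D3 and D4.4 receptors, detected by scintillation counting; nonspecific binding defined with excess unlabelled ligand. Results as percent inhibition of control specific binding; IC50 by Hill-equation nonlinear regression; Ki via Cheng-Prusoff, with radioligand KD from Scatchard plot.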
Sequence of dopaminergic receptors D3 (P35462 whole entry): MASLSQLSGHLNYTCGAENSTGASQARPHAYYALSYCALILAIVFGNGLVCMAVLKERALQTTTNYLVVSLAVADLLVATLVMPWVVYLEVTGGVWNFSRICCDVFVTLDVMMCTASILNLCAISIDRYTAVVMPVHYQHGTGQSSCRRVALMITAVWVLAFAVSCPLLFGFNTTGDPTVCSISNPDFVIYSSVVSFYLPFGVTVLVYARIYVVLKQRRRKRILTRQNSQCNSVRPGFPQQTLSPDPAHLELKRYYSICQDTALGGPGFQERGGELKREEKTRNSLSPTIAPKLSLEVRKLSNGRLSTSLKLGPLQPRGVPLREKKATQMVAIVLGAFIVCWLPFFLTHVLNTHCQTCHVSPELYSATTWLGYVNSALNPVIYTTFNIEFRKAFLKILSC

The target of the next test is T1, 5-HT2A receptor (Homo sapiens, UniProt P28223).
T1 construct: purchased PerkinElmer
T1 sequence (P28223 whole entry): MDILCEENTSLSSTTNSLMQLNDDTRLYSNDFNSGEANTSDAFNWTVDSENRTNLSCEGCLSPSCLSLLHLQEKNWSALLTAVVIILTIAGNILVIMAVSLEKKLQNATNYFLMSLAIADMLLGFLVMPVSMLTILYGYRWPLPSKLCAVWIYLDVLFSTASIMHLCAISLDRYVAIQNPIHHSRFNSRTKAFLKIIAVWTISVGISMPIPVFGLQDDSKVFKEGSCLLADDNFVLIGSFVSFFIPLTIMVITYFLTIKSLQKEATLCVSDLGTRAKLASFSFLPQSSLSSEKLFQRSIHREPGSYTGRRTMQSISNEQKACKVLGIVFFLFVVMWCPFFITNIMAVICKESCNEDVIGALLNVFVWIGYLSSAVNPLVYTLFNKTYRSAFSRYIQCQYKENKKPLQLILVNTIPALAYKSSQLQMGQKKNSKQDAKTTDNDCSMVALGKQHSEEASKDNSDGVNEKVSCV
Briefly: Radioligand binding assay, serotoninergic 5-HT2A receptors. To be noted: binding assay result in %, Table 5a. The procedure, abridged: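 Radioligand competition binding with scintillation counting; nonspecific binding defined by excess unlabelled ligand. Data as percent inhibition of control specific binding. IC50 by Hill-equation fit of competition curves; Ki by Cheng-Prusoff, with radioligand Kd from Scatchard plot.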

In test [2] the target is T2, serotonin transporter (SERT) (Homo sapiens, UniProt P31645).
T2 construct: expressed in transfected cells; host or cells: CHO cells
T2 sequence (P31645 whole entry): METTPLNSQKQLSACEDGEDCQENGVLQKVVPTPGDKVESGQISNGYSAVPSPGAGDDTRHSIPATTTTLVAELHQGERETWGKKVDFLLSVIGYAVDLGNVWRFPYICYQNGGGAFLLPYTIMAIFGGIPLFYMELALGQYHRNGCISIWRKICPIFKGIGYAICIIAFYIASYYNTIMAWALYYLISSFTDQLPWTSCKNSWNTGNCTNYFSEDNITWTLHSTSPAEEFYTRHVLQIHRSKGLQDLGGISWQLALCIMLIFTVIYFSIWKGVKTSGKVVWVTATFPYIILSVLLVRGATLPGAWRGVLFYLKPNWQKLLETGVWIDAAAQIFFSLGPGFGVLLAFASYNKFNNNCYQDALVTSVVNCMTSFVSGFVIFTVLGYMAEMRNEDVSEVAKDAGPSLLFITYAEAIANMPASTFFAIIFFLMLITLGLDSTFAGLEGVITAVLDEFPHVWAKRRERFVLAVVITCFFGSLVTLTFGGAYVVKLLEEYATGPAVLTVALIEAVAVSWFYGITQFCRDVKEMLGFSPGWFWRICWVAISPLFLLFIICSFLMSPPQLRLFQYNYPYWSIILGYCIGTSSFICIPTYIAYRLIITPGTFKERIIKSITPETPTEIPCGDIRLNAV
The test is described as follows: Radioligand binding assay, serotonin transporter (SERT). Particulars: for Ki: read-out: Inhibition constants Ki for SERT, SERT. In short, it runs like this: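 Radioligand competition binding with scintillation detection; specific binding is total minus binding under excess unlabelled ligand. Reported as % of control specific binding or % inhibition; IC50 from Hill-equation non-linear regression of competition curves, and Ki via Cheng-Prusoff using radioligand concentration and Scatchard-derived KD.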

Another test concerns the target T3, M3 muscarinic receptors (Homo sapiens, UniProt P20309).
T3 construct: expressed in transfected cells; host or cells: CHO cells
The test is described as follows: Radioligand binding assay, muscarinic M3 receptors. Particulars: test compound 1×10^−6 M. The procedure, abridged: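 Radioligand competition binding, detected by scintillation counting; non-specific binding defined with excess unlabelled ligand. Results given as % inhibition of control specific binding; IC50 from Hill-equation fit of competition curves, Ki via Cheng-Prusoff with radioligand KD from Scatchard plot.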

The target in test [3] is T4, 5-HT1A receptor (rat hippocampus) (Rattus norvegicus, UniProt P19327).
T4 construct: hippocampus; from tissue; host or cells: rat hippocampus
T4 sequence (P19327 1-422): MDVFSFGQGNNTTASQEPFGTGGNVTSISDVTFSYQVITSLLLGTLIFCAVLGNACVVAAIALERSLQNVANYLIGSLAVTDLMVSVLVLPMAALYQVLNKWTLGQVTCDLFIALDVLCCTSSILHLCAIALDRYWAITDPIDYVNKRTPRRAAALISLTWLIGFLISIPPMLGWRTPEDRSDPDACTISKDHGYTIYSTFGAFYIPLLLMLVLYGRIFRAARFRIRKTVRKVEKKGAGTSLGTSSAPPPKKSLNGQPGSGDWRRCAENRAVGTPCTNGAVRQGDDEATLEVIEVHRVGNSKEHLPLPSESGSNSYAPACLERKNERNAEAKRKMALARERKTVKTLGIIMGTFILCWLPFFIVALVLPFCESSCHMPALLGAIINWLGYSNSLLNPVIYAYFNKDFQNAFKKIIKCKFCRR
The test is described as follows: Radioligand binding assay, serotoninergic 5-HT1A receptors. To be noted: binding assay result in %, Table 5a.

In test [4] the target is dopaminergic receptors D2 (Homo sapiens, UniProt P14416). The test is described as follows: Radioligand binding assay, dopaminergic D2 receptors. To be noted: binding assay, test compound 1×10^−6 M. The procedure, abridged:
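Radioligand displacement was measured by scintillation counting, with non-specific binding defined in the presence of excess unlabelled ligand. Competition curves were fitted to the Hill equation to give IC50, and Ki was derived by the Cheng–Prusoff equation.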

The target of the next test is T5, 5-HT2C receptor (Homo sapiens, UniProt P28335).
T5 construct: expressed in transfected cells; host or cells: HEK-293 cells
T5 sequence (P28335 33-458): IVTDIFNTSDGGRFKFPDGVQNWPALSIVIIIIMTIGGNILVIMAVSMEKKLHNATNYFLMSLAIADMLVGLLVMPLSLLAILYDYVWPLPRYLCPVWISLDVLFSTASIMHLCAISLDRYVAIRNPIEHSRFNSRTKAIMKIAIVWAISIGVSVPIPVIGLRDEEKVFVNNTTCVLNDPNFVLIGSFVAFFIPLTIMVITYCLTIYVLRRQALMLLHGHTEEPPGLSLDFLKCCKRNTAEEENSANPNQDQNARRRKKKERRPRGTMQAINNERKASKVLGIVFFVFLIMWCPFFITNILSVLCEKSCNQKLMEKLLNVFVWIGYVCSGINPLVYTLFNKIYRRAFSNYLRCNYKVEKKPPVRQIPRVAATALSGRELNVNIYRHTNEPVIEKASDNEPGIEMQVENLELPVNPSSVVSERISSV
The test is described as follows: Radioligand binding assay, serotoninergic 5-HT2C receptors. Particulars: test compound 1×10^−6 M.

The subject of test [5] is α1 adrenergic receptors (rat cerebral cortex). The test is described as follows: Radioligand binding assay, adrenergic α1 receptors. To be noted: test compound 1×10^−6 M. The procedure, abridged: (§1)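 Values derive from radioligand displacement, with non-specific binding defined by excess cold ligand and detection by scintillation. Hill-fit IC50s were converted to Ki via Cheng-Prusoff using Scatchard-derived Kd; percent inhibition of control specific binding also reported.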

A further test relates to σ receptors. Briefly: Radioligand binding assay, σ receptors. To be noted: rat cerebral cortex, [3H]DTG 8 nM. In short, it runs like this: as §1
Test [6] addresses T6, H1 histaminergic receptors (Homo sapiens, UniProt P35367).
T6 construct: expressed in transfected cells; host or cells: HEK-293 cells
Briefly: Radioligand binding assay, histaminergic H1 receptors. To be noted: human recombinant (HEK-293 cells), [3H]pyrilamine 1 nM. The procedure, abridged: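 Competition binding at human H1 receptors; specific binding taken as total minus non-specific binding in excess unlabelled ligand, scintillation read-out. IC50 from Hill-equation fit of competition curves; Ki by Cheng-Prusoff using radioligand concentration and Kd (from Scatchard plot).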

Where [7] appears, read: binding assay, test compound 1×10^−6 M.

Each structure is given as a SMILES string.

T6 sequence (P35367 whole entry): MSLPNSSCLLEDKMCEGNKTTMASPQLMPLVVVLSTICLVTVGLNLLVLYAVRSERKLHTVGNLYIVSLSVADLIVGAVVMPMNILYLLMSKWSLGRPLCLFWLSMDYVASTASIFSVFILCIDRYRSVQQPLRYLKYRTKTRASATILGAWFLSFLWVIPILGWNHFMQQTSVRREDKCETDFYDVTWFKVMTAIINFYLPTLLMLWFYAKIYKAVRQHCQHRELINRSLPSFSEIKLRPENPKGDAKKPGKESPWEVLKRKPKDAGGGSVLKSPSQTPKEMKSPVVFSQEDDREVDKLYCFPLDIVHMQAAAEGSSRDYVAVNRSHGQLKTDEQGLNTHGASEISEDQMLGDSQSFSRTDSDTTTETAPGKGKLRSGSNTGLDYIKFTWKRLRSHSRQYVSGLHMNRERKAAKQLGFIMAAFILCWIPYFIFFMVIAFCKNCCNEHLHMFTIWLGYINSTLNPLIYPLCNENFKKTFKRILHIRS
Sequence of dopaminergic receptors D2 (P14416 whole entry): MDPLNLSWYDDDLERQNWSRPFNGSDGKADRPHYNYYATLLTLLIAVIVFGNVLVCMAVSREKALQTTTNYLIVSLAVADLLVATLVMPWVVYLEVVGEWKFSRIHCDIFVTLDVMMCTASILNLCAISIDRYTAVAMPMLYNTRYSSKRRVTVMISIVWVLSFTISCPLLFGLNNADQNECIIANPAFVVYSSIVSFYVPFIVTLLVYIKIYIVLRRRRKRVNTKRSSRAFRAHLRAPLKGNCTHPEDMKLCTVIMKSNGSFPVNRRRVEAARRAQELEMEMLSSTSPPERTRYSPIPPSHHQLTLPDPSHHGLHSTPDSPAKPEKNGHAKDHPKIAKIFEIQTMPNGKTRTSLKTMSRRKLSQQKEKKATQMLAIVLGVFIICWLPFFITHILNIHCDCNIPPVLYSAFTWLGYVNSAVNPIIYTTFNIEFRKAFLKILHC
T3 sequence (P20309 whole entry): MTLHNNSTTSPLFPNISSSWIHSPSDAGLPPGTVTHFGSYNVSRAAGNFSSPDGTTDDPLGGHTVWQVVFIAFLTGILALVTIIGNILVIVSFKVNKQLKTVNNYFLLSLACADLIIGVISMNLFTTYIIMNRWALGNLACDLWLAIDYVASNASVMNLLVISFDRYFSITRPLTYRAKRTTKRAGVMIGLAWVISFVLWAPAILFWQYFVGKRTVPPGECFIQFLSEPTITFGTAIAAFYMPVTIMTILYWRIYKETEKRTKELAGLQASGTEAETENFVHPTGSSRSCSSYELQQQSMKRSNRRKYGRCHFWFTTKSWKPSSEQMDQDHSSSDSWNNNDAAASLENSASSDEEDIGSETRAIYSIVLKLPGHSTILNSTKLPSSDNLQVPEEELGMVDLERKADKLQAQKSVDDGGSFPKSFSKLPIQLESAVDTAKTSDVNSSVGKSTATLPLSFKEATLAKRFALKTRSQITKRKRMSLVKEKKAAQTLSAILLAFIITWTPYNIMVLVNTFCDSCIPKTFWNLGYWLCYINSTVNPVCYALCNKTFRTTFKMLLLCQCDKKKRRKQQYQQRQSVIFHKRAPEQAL

For `O=S(=O)(NC1CCN(CCCc2noc3cc(F)ccc23)C1)c1cc2ccccc2s1` (stereo not drawn) [Compound 25, N-[1-[3-(6-Fluoro-1,2-benzoxazol-3-yl)propyl]pyrrolidin-3-yl]-benzothiophene-2-sulphonamide], the inhibition – broadly, the change of the read-out against control, counted positive when it falls – at 1 µM in test [1] was 97%; on 5-HT2A receptor, 102%; in [2] (setting [7]), 42%; on M3 muscarinic receptors it was 23%; in test [3], 74%; in [4] it was 98%. The figures for the inhibition at 1 µM (on 5-HT2C receptor; in test [6]) were 83% and 75%, respectively. In [5], the “α1 [%]” value is listed as 85%. For the same molecule, the “σ [%]” value with σ receptors was found to be 70%.

Turning to `Cc1c(S(=O)(=O)NC2CCN(CCCc3noc4cc(F)ccc34)C2)sc2ccc(F)cc12` (stereo not drawn) [Compound 28, 5-Fluoro-N-[1-[3-(6-fluoro-1,2-benzoxazol-3-yl)propyl]pyrrolidin-3-yl]-3-methyl-benzothiophene-2-sulphonamide], the inhibition at 1 µM in test [1] is 96%; on 5-HT2A receptor, 101%; in [2] (setting [7]) it was 54%; at M3 muscarinic receptors, 13%; in [3], 61%; in test [4], 97%. In addition, the inhibition at 1 µM came to 72% at 5-HT2C receptor and 63% in [6]. The “α1 [%]” value in [5] is 70%. Besides, the “σ [%]” value in the test with σ receptors is reported as 70%.

Regarding `O=S(=O)(NC1CCN(CCCc2noc3cc(F)ccc23)CC1)c1cccc2ccccc12` [Compound 34, N-[1-[3-(6-Fluoro-1,2-benzoxazol-3-yl)propyl]-4-piperidine]-naphthalene-1-sulphonamide], the inhibition at 1 µM turned out to be 58% in test [1]; 98% on 5-HT2A receptor; 43% in test [2] (setting [7]); 12% at M3 muscarinic receptors; 32% in test [3]; 76% in [4]. For the same molecule, the inhibition at 1 µM on 5-HT2C receptor was determined as 94%; in test [6], 56%. Moreover, in [5], the “α1 [%]” value was 91%. In addition, the “σ [%]” value in the test on σ receptors is 50%.

Regarding `O=S(=O)(NC1CN(CCOc2cccc3[nH]ccc23)C1)c1ccc(F)cc1` [Compound 46, 4-Fluoro-N-[1-[2-(1H-indol-4-yloxy)ethyl]azetidin-3-yl]benzene-sulphonamide], the inhibition at 1 µM was 104% in test [1]; 34% at 5-HT2A receptor; 7% in test [2] (setting [7]); -13% at M3 muscarinic receptors; 101% in [3]; 93% in [4]. Besides, the results for the inhibition at 1 µM (on 5-HT2C receptor; in [6]) were 21% and 6%, respectively. The “α1 [%]” value in [5] is 85%. Further, the “σ [%]” value with σ receptors worked out at 15%.

Take `O=S(=O)(NC1CN(CCOc2cccc3[nH]ccc23)C1)c1cccc(Cl)c1` [Compound 47, 3-Chloro-N-[1-[2-(1H-indol-4-yloxy)ethyl]azetidin-3-yl]benzene-sulphonamide]: the inhibition at 1 µM in test [1] was 97%; on 5-HT2A receptor, 80%; in test [2] (setting [7]), 6%; at M3 muscarinic receptors it was -8%; in [3], 98%; in test [4] it was 83%. The inhibition at 1 µM was 33% on 5-HT2C receptor and -3% in test [6]. For the same molecule, the “α1 [%]” value in test [5] was 71%. Besides, the “σ [%]” value with σ receptors was 44%.

`Cc1cccc(S(=O)(=O)NC2CN(CCOc3cccc4[nH]ccc34)C2)c1` [Compound 48, N-[1-[2-(1H-Indol-4-yloxy)ethyl]azetidin-3-yl]-3-methyl-benzenesulphonamide]: the inhibition at 1 µM in test [1] is 104%; on 5-HT2A receptor, 88%; in test [2] (setting [7]) it was -3%; at M3 muscarinic receptors it was 1%; in test [3] it was 100%; in test [4] it was 84%. Besides, the inhibition at 1 µM was 32% on 5-HT2C receptor and 21% in [6]. For the same molecule, in test [5], the “α1 [%]” value amounted to 87%. The “σ [%]” value with σ receptors worked out at 18%.

On to `O=S(=O)(NC1CN(CCOc2cccc3[nH]ccc23)C1)c1ccc2ccccc2c1` [Compound 50, N-[1-[2-(1H-Indol-4-yloxy)ethyl]azetidin-3-yl]naphthalene-2-sulphonamide], for which the inhibition at 1 µM turned out to be 104% in test [1]; 97% at 5-HT2A receptor; 20% in test [2] (setting [7]); 2% at M3 muscarinic receptors; 101% in test [3]; 96% in [4]. For the same molecule, the inhibition at 1 µM on 5-HT2C receptor stood at 54%; in test [6], 34%. Also, the “α1 [%]” value in [5] is 88%. The “σ [%]” value with σ receptors is given as 59%.

`O=S(=O)(NC1CCN(CCOc2cccc3[nH]ccc23)CC1)c1ccccc1` [Compound 55, N-[1-[2-(1H-Indol-4-yloxy)ethyl]-4-piperidine]benzenesulphonamide]: the “D3 [%]” value in test [1] was determined as 93%. Also, the “5-HT2A [%]” value at 5-HT2A receptor is 94%. For the same molecule, the “SERT [%]” value in test [2] (setting [7]) amounted to 6%. The “M3 [%]” value at M3 muscarinic receptors was −1%. Further, in test [3], the “5-HT1A [%]” value is on record as 96%. Besides, the “D2 [%]” value in [4] is recorded as 44%. Further, the “5-HT2C [%]” value at 5-HT2C receptor worked out at 30%. Also, in test [5], the “α1 [%]” value is on record as 51%. Besides, the “σ [%]” value with σ receptors is given as 37%. For the same molecule, the “H1 [%]” value in [6] was determined as 0%.

Take `O=S(=O)(NC1CCN(CCCc2c[nH]c3ccc(F)cc23)C1)c1ccc(F)cc1` (stereo not drawn) [Compound 75, 4-Fluoro-N-[1-[3-(5-fluoro-1H-indol-3-yl)propyl]pyrrolidin-3-yl]benzene-sulphonamide]: the inhibition at 1 µM came to 86% in test [1]; 90% on 5-HT2A receptor; 103% in [2] (setting [7]); 17% on M3 muscarinic receptors; 100% in test [3]; 91% in [4]. Besides, the inhibition at 1 µM on 5-HT2C receptor stood at 83%; in [6], 57%. In addition, the Ki (usually the dissociation constant of the complex between target and ligand, obtained from inhibition or displacement) in test [2] came out at 1.5 nM. The “α1 [%]” value in [5] is reported as 45%. Besides, the “σ [%]” value in the test with σ receptors turned out to be 75%.

As to `O=S(=O)(NC1CCN(CCCc2c[nH]c3ccc(F)cc23)C1)c1ccc(Cl)cc1` (stereo not drawn) [Compound 77, 4-Chloro-N-[1-[3-(5-fluoro-1H-indol-3-yl)propyl]pyrrolidin-3-yl]-benzenesulphonamide], the inhibition at 1 µM in test [1] was 93%; on 5-HT2A receptor it was 100%; in test [2] (setting [7]), 104%; at M3 muscarinic receptors it was 17%; in test [3], 99%; in [4] it was 93%. Moreover, the inhibition at 1 µM stood at 77% on 5-HT2C receptor and 54% in [6]. The Ki in test [2] turned out to be 0.5 nM. Moreover, the “α1 [%]” value in test [5] is 29%. In addition, the “σ [%]” value in the test with σ receptors is listed as 48%.

For the origin of these results see patent US20140135310A1, “SULPHONAMIDE DERIVATIVES OF ALICYCLIC AMINES FOR THE TREATMENT OF CENTRAL NERVOUS SYSTEM DISEASES” (Adamed Sp. z o.o., priority 2011, published 2014).
